Assay results taken from PMC12036750, “Screening of SIRT6 inhibitors and activators: A novel activator has an impact on breast cancer cells” (Biomedicine & pharmacotherapy = Biomedecine & …, 2021).

Tests used:
SIRT2 = target: T1, SIRT2 (Homo sapiens, UniProt Q8IXJ6); assay: fluorogenic deacetylation assay (BioMol KI179 substrate), single concentration […]; format: biochemical
T1 sequence (Q8IXJ6 2-389): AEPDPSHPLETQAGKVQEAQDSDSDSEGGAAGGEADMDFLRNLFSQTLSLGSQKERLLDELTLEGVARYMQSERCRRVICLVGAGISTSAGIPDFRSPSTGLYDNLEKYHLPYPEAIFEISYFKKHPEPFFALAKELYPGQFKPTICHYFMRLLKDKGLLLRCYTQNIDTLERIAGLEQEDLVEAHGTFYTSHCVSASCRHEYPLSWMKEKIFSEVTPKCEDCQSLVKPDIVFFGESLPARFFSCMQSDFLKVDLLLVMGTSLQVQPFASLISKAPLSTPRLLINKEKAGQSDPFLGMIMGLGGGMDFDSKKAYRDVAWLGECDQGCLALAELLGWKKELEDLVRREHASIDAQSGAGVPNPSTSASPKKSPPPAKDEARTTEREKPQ

SIRT6 [1] = target: T2, SIRT6 (Homo sapiens, UniProt Q8N6T7); assay: HPLC deacetylation assay with H3K9Ac peptide; dose response and steady-state kinetics (activation); format: biochemical
Target sequence in this assay (Q8N6T7 whole entry): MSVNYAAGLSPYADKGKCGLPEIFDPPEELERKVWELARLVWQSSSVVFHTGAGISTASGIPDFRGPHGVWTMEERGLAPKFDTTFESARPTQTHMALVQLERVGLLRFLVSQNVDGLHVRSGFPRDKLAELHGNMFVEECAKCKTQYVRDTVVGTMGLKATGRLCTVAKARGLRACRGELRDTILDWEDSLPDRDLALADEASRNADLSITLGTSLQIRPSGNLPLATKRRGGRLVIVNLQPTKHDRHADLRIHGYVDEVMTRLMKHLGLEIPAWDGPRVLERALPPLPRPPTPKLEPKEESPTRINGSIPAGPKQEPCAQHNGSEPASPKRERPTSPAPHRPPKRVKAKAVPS

SIRT6 [2] = target: T2, SIRT6; assay: HPLC deacetylation assay, single concentration […]; format: biochemical; conditions: read-out: % inhibition at 100 μM
Target sequence in this assay (Q8N6T7 whole entry): as above

[3] = test system: T3, NC(=O)c1ccc[n+]([C@@H]2O[C@H](COP(=O)([O-])OP(=O)(O)OC[C@H]3O[C@@H](n4cnc5c(N)ncnc54)[C@H](O)[C@@H]3O)[C@@H](O)[C@H]2O)c1; assay: steady-state Michaelis-Menten kinetics by HPLC (Km, DMSO control); format: biochemical, Homo sapiens
T3 construct: GST-tagged recombinant SIRT6

SIRT6 [4] = target: T2, SIRT6; assay: fluorogenic demyristoylase assay (BPS Bioscience), myristoyl peptide substrate; format: biochemical
Target sequence in this assay (Q8N6T7 2-355): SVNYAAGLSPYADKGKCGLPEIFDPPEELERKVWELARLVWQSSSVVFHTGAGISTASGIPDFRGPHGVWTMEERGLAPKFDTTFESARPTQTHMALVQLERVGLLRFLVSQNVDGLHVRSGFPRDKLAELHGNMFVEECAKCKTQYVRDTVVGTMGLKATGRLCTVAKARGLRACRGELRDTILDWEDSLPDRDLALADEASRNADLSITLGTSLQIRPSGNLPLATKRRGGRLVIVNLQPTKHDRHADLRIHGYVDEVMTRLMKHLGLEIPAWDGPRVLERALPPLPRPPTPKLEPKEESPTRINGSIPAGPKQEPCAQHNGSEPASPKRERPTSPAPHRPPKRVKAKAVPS

Compound: Cc1c(-c2ccccc2)oc2c(CC(=O)OCC(=O)c3ccc(O)cc3O)cccc2c1=O [compound 1, (2,4-dihydroxy-phenyl)–2-oxoethyl 2-(3-methyl-4-oxo-2-phenyl-4H-chromen-8-yl)acetate]
- inhibition at 200 µM (SIRT2): 53 ± 1.3%
- EC50 (SIRT6 [1]): 80 ± 12 µM

Compound: O=c1c(O)c(-c2ccc(O)c(O)c2)oc2cc(O)cc(O)c12 [Q, quercetin]
- inhibition at 100 µM (SIRT6 [2]): 30%

Compound: SIRT6 (Homo sapiens)
- Km [3]: 1190 ± 450 µM
- kcat [3]: 0.0022 ± 0.0004 s⁻¹
- kcat/Km [3]: 1.9 M⁻¹ s⁻¹

Compound: NC(=O)c1cccnc1 [NAM]
- inhibition at 200 µM (SIRT6 [4]): 86 ± 13%
